# Laboratory results reported in PubChem BioAssay AID2253 (Southern Research Specialized Biocontainment Screening …, 2010).
# Tested on: THP-1 viability, CellTiter-Glo luminescence, 72 h
# Assay: THP-1 cell cytotoxicity, dose response, cytotoxicity control for Salmonella PhoP regulon inhibitors, S. typhimurium screen hits (AID 2253)
row,SMILES,EC50
1,COC(=O)c1cc(C)nc2c1C(=O)C(=O)C=C2N1CCOCC1,2.97 µM
2,CN1CCN(C(c2ccc(Br)cc2)c2cc(Cl)c3cccnc3c2O)CC1 (stereo unspecified),3.87 µM
3,Cc1ccc(-n2c(C)cc(C3=NNC(=NC4CC4)SC3)c2C)cc1C,21.4 µM
4,Cc1cc(C)cc(OC(=O)CS(=O)c2ccc(C(F)(F)F)cc2[N+](=O)[O-])c1 (stereo unspecified),5.98 µM
5,O=C(N/N=C/c1cc2c3c(c1O)CCCN3CCC2)c1ccccc1O,3.56 µM
6,COc1ccc(NC(C)C(=O)Nc2ccc(C(C)(C)C)cc2)cc1Cl (stereo unspecified),40.7 µM
7,Nc1c(Cl)ncnc1N/N=C/c1ccccn1,0.47 µM
8,COc1ccc(C(C[N+](=O)[O-])n2nc(C)cc2C)cc1 (stereo unspecified),10.1 µM
9,Cc1ccc(/C=C2\SC(=S)N(Cc3ccccc3)C2=O)o1,24.4 µM
10,CCCCCc1ccc(OCCC[n+]2ccccc2)c(CCCCC)c1,2.78 µM
11,C/C(=N\N=C(N)N)c1ccc(Cl)c(Cl)c1,11.2 µM
12,O=c1c2c(-c3ccccc3)csc2nc2c3ccccc3c(NCCN3CCOCC3)nn12,3.11 µM
13,O=[N+]([O-])c1ccc(O)c2ncccc12,8.31 µM
14,CC1CCC(C(C)C)C(OC(=O)Cn2c(COc3ccccc3)[n+](C)c3ccccc32)C1 (stereo unspecified),2.6 µM
15,COc1ccc(C(C[N+](=O)[O-])c2c(-c3ccccc3)cc3ccccn23)cc1 (stereo unspecified),12.8 µM
16,C(=Nc1ccc(Nc2ccccc2)cc1)c1ccc2ccccc2c1,25.8 µM
17,O=S(=O)(Nc1ccc(N=Nc2ccc(O)c3ccccc23)cc1)c1ccccc1,22 µM
18,Cc1[nH]c2ccccc2c1C1=NNC(=Nc2ccc(F)cc2)SC1,12.6 µM
19,CCCCCOc1ccc(Br)cc1CSC(=N)N,1.86 µM

row,SMILES,EC50
1,Cc1c(C(=O)Nc2cccc(Cl)c2)c2ccccn2c1CCc1ccncc1,24.7 µM
2,O=C(OCC1O[C@@H](OC(=O)c2cc(O)c(O)c(O)c2)[C@@H](OC(=O)c2cc(O)c(O)c(O)c2)[C@@H](OC(=O)c2cc(O)c(O)c(O)c2)[C@@H]1OC(=O)c1cc(O)c(O)c(O)c1)c1cc(O)c(O)c(O)c1 (stereo partly specified),14 µM
3,Oc1ccc(C=Nc2ccc3ncccc3c2)c(O)c1,14.2 µM
4,O=C(N/N=C/c1ccc([N+](=O)[O-])o1)c1ccc(O)cc1,12 µM
5,O=C(NC(=S)NNC(=O)c1ccccc1O)c1ccco1,14.6 µM
6,Oc1ccc(Cl)cc1Cc1cc(Cl)ccc1O,19.6 µM
7,COc1ccc(C(=O)N2CCc3cc(OC)c(OC)cc3C2)cc1OC,36.7 µM
8,CCCCCCCCCCCCCCCC[n+]1cccc2ccccc21,0.27 µM
9,OC(c1cc(-c2ccc(C(F)(F)F)cc2)nc(C(F)(F)F)c1)C1CCCCN1 (stereo unspecified),6.15 µM
10,Cc1ccc(C(C[N+](=O)[O-])c2c(N)n(C)c(=O)n(C)c2=O)cc1 (stereo unspecified),34.2 µM
11,OC(CNCCc1ccccc1)COc1ccc(OCC(O)CNCCc2ccccc2)cc1 (stereo unspecified),6 µM
12,COc1ccc(C(=O)Cn2nc(CNc3ccc(Br)cc3)[n+]3c2CCCCC3)cc1,7.74 µM
13,CCCCCCCCCCOC(=O)Cn1c(COc2ccccc2)[n+](C)c2ccccc21,8.34 µM
14,CN1C(=O)/C(=C/c2cccn2-c2ccc3ccccc3c2)C(=O)NC1=S,16.6 µM
15,NNC(=O)CNC(c1ccccc1)c1cc(Br)ccc1NC(=O)c1ccc(Br)cc1 (stereo unspecified),39.5 µM
16,CCc1ccc(-c2nn(-c3ccccc3)cc2CSC(=N)N)cc1,6.52 µM
17,NC(N)=NN=C1CCCCCCCCCCC1,7.67 µM
18,Fc1ccc(Nc2nc(NCc3ccco3)c3ccccc3n2)cc1,6.54 µM
19,NC(=NCCc1c[nH]c2ccccc12)NC(=O)c1ccc(F)cc1,36.4 µM

row,SMILES,EC50
1,O=C(Nc1ccc(O)cc1)c1cc2n(n1)C(C(F)(F)F)CC(c1ccco1)N2 (stereo unspecified),11.9 µM
2,NNC(=S)Nc1ccc(Cl)cc1,48.1 µM
3,COc1cc(C(=O)NC(=S)Nc2ccc3oc(=O)ccc3c2)cc(OC)c1OC,45.9 µM
4,NC1=NC(=Nc2cccc(Cl)c2)c2ccccc21,32.4 µM
5,CCCOc1ccc(C(=O)C(CCC(CNCC)C(=O)c2ccc(OCCC)cc2)CNCC)cc1 (stereo unspecified),1.58 µM
6,Clc1cc(Br)ccc1OCCCNCc1ccccc1,22.8 µM
7,CCOc1ccccc1NS(=O)(=O)c1ccc(Br)s1,40.5 µM
8,COc1ccc2[nH]c3c(C)c4ccncc4c(C)c3c2c1,1.27 µM
9,c1ccc2c(c1)ncn2CCCCOc1ccc2c(c1)CCC2,15 µM
10,C=CCc1cccc(C2Nc3ccccc3C(=O)N2O)c1O (stereo unspecified),43.1 µM
11,O=C(Oc1c(Cl)cc(Cl)c2cccnc12)c1ccco1,11.5 µM
12,CCCc1cnc(NCCNCC(O)COc2ccc(Cl)c(Cl)c2)nc1 (stereo unspecified),11.8 µM
13,Oc1c(C(Nc2nc3ccccc3s2)c2ccco2)ccc2cccnc12 (stereo unspecified),0.65 µM
14,O=[N+]([O-])/C=C/c1cc2ccccc2[nH]1,31.6 µM
15,Clc1ccc(-c2csc3ncnc(N4CCc5ccccc5C4)c23)cc1,44 µM
16,CCn1cc(C(=O)O)c(=O)c2cc(F)c(N3CCN(C(=S)NC(=O)c4c(OC)cccc4OC)CC3)cc21,43.5 µM
17,CN(C)c1ccc(/C=C/c2ccc3ccccc3[n+]2C)cc1,0.3 µM
18,O=C(Cc1cccs1)Nc1cccc(-c2nc3cc4ccccc4cc3[nH]2)c1,12.5 µM
